The values that follow come from patent US11918628B2, “Controlled-release PTH compound” (ASCENDIS PHARMA BONE DISEASES A/S, priority 2016, dated 2024).

In one series the test system is TPTx rats. Put plainly: 28-days study in thyroparathyroidectomised (TPTx) rats with daily subcutaneous injections of conjugate 18 or PTH(1-84). It counts as in vivo, rat. As for the experimental part: Quantitative measurements of serum calcium (sCa), urinary calcium and serum phosporous (sP) were performed on a Roche-Hitachi P800 modular biochemistry instrument.
This study was performed in order to test and compare the effect of daily subcutaneous injection of compound 18 and PTH(1-84), the current standard of care, in an animal disease model relevant for investigating treatment of hypoparathyroidism (HP). Rats subjected to thyroparathyroidectomy (TPTx) by blunt dissection are unable to produce parathyroid hormone, PTH, the major regulator of calcium homeostasis. […] 17 weeks old female SD TPTx rats (n=9/group) were dosed subcutaneously for 28 days with compound 18 ([…]; 1.2 nmol/kg/d, in 10 mM succinic acid, 46 g/L mannitol, pH 4.0), PTH(1-84) (70 μg PTH eq/kg/d; 7.3 nmol/kg/d; in 10 mM citrate, mannitol 39.0 g/L, pH 5.0) or vehicle. Additionally, one group of sham operated rats (n=9) representing normophysiological background control were also given vehicle. Serum calcium (sCa) and phosporous (sP) levels in the animals were measured pre- and post-dose on days 1, 6, 12 and 27. Moreover, bone turnover markers (P1NP and CTx) were measured and bone quality assessed by ex vivo pQCT.

For series [1], the system named is patients with hypoparathyroidism. To be noted: cited from earlier work.
In a further series the test system is patients. To be noted: 6-year follow-up; cited from earlier work.
The subject of a further series is rats. To be noted: daily injections; cited from earlier work.
The test system of series [2] is patients with hypoparathyroidism. To be noted: cited from earlier work. This is another data set of the same source.

Turning to “PTH(1-84): Natpara, PTH(1-84), polypeptide with the sequence of SEQ ID NO:1; the current standard of care”, in the series with TPTx rats (TPTx rats, 28 days daily sc), the “trabecular and cortical BMD/bone in vertebrae after 28 days of treatment” value is “anabolic effect”. The “trabecular BMD compared to both control groups” value in the series on TPTx rats (TPTx rats, 28 days daily sc, 7.3 nmol/kg/d) is given as “significant increase”. Besides, the “sCa ratio treated/sham-control at day 12” value in the series on TPTx rats (TPTx rats, daily sc, day 12) worked out at 0.76. In the series on TPTx rats (TPTx rats, daily sc, compound 18 1.2 nmol/kg/d, PTH(1-84) 7.3 nmol/kg/d), the “effect on serum phosphorous (sP)” value is recorded as “minimal decrease”. Moreover, the “effect on serum calcium (sCa)” value in the series with TPTx rats (TPTx rats, daily sc, compound 18 1.2 nmol/kg/d, PTH(1-84) 7.3 nmol/kg/d, versus vehicle-injected TPTx rats) is “did not lead to increase in sCa”. The “serum calcium (sCa) at day 12” value in the series with TPTx rats (female SD TPTx rats, daily sc, day 12) was 8.1 mg/dL. Moreover, the “urinary calcium excretion 2-8 hours after injection” value in series [1] (2-8 hours after injection) is reported as “reduced”. For the same compound, in series [1] (24-hour period after injection), the “urinary calcium excretion over the 24-hour period” value is “did not change”. Besides, the urinary phosphate excretion result in series [1] (after injection) was “increased only during the first 8 hours”. For the same compound, the “participants who achieved normal blood calcium levels on reduced doses of calcium supplements and active forms of vitamin D” value in series [1] (pivotal trial, once-daily sc, adjunct to vitamin D and calcium) was 42%. Further, in series [1] (serum calcium monitored after injection), the “patients who developed hypercalcemia at one or more measurements during a 24-hour period” value is on record as 71%. The “incidences of hypercalcemia, hypocalcemia or hypercalciuria relative to conventional therapy” value in series [1] (treated patients) is given as “has not demonstrated an ability to reduce”. Also, in the series with patients, the “bone mineral density (BMD) by DXA” value is “increases in lumbar spine and declines in the distal ⅓ radius”; the bone turnover markers entry was “remained greater than pretreatment values”. Further, in the series with rats, the osteosarcoma rate entry was “dose dependent increase”.

For the compound `CC[C@H](C)[C@H](NC(=O)[C@H](CCC(=O)O)NC(=O)[C@H](CO)NC(=O)[C@@H](NC(=O)[C@@H](N)CO)C(C)C)C(=O)N[C@@H](CCC(N)=O)C(=O)N[C@@H](CC(C)C)C(=O)N[C@@H](CCSC)C(=O)N[C@@H](Cc1cnc[nH]1)C(=O)N[C@@H](CC(N)=O)C(=O)N[C@@H](CC(C)C)C(=O)NCC(=O)N[C@@H](CCCCN)C(=O)N[C@@H](Cc1cnc[nH]1)C(=O)N[C@@H](CC(C)C)C(=O)N[C@@H](CC(N)=O)C(=O)N[C@@H](CO)C(=O)N[C@@H](CCSC)C(=O)N[C@@H](CCC(=O)O)C(=O)N[C@@H](CCCN=C(N)N)C(=O)N[C@H](C(=O)N[C@@H](CCC(=O)O)C(=O)N[C@@H](Cc1c[nH]c2ccccc12)C(=O)N[C@@H](CC(C)C)C(=O)N[C@@H](CCCN=C(N)N)C(=O)N[C@@H](CCCCN)C(=O)N[C@@H](CCCCN)C(=O)N[C@@H](CC(C)C)C(=O)N[C@@H](CCC(N)=O)C(=O)N[C@@H](CC(=O)O)C(=O)N[C@H](C(=O)N[C@@H](Cc1cnc[nH]1)C(=O)N[C@@H](CC(N)=O)C(=O)N[C@@H](Cc1ccccc1)C(=O)O)C(C)C)C(C)C` [PTH(1-34)], the “daily dose with pump delivery, lower than with the twice daily injection regimen” value in series [2] (pump delivery versus twice daily injection) is given as 65%. Moreover, the “calcium levels with pump delivery” value in series [2] (pump delivery, over 6-months) is “normal, steady state calcium levels with minimal fluctuation”. The “urinary calcium excretion with pump delivery” value in series [2] (pump delivery) is listed as “marked reduction”. In addition, the osteosarcoma rate result in the series on rats is given as “dose dependent increase”.
